Assay results taken from the NIST ThermoML archive (doi:10.1016/j.jct.2019.03.022).

Conditions: Liquid, Frequency=5 MHz, Pulse-echo method

Cc1ccccc1 [toluene]
Conditions | speed of sound [m/s]
323.29 K, 10200 kPa | 1253.2
323.32 K, 20480 kPa | 1305.4
323.32 K, 20600 kPa | 1305.9
323.34 K, 31540 kPa | 1356.7
323.37 K, 44870 kPa | 1413.5
323.38 K, 60790 kPa | 1475.5
323.39 K, 60820 kPa | 1475.5
373.82 K, 7570 kPa | 1046.5
373.83 K, 2170 kPa | 1007.9
373.83 K, 21270 kPa | 1132.5
373.85 K, 35520 kPa | 1209.3
373.87 K, 64470 kPa | 1340.7
373.9 K, 50350 kPa | 1280
422.93 K, 6580 kPa | 863.73
422.98 K, 20740 kPa | 974.49
423.01 K, 36450 kPa | 1073.4
423.04 K, 56200 kPa | 1176.9

Cc1ccc(C)cc1 [1,4-dimethylbenzene]
Conditions | speed of sound [m/s]
305.93 K, 3690 kPa | 1296.5
305.97 K, 40270 kPa | 1464.5
305.98 K, 5250 kPa | 1304.4
305.98 K, 45030 kPa | 1483.5
305.98 K, 50870 kPa | 1506
305.99 K, 1000 kPa | 1281.8
305.99 K, 35160 kPa | 1443.6
306 K, 4900 kPa | 1302.5
306 K, 13840 kPa | 1347.7
306 K, 30490 kPa | 1423.8
306.02 K, 2050 kPa | 1287.2
306.03 K, 9400 kPa | 1325.6
306.05 K, 6960 kPa | 1312.9
306.06 K, 19900 kPa | 1376.2
306.07 K, 2050 kPa | 1287.1
306.07 K, 16500 kPa | 1360.1
306.07 K, 24630 kPa | 1397.8
306.1 K, 29650 kPa | 1419.7
306.14 K, 26930 kPa | 1407.8
306.18 K, 28370 kPa | 1413.9
323.47 K, 41260 kPa | 1410.2
323.47 K, 49810 kPa | 1445.3
323.47 K, 59650 kPa | 1483.5
323.48 K, 34540 kPa | 1381.1
323.48 K, 54770 kPa | 1464.8
323.48 K, 55430 kPa | 1467.4
323.49 K, 46870 kPa | 1433.4
323.51 K, 49380 kPa | 1443.5
323.51 K, 65910 kPa | 1506.7
323.52 K, 30290 kPa | 1361.8
323.53 K, 11470 kPa | 1269.8
323.54 K, 1060 kPa | 1211.5
323.54 K, 6060 kPa | 1240.3
323.54 K, 44230 kPa | 1422.4
323.54 K, 45010 kPa | 1425.6
323.55 K, 18570 kPa | 1306.1
323.56 K, 210 kPa | 1206.4
323.57 K, 490 kPa | 1208.1
323.57 K, 2600 kPa | 1220.4
323.57 K, 10070 kPa | 1262.1
323.57 K, 20900 kPa | 1317.5
323.57 K, 39580 kPa | 1402.7
323.57 K, 44830 kPa | 1424.7
323.58 K, 5070 kPa | 1234.5
323.58 K, 6090 kPa | 1240.3
323.58 K, 11110 kPa | 1267.7
323.58 K, 34830 kPa | 1382
323.59 K, 7490 kPa | 1248
323.59 K, 17890 kPa | 1302.5
323.59 K, 25130 kPa | 1337.7
323.59 K, 30210 kPa | 1361.3
323.6 K, 15130 kPa | 1288.6
335.95 K, 55000 kPa | 1427.5
335.95 K, 65380 kPa | 1467.9
335.96 K, 61040 kPa | 1451.3
335.97 K, 50590 kPa | 1409.6
335.98 K, 1230 kPa | 1164
335.98 K, 2630 kPa | 1172.6
335.98 K, 5600 kPa | 1190.4
335.98 K, 45230 kPa | 1387.1
335.99 K, 280 kPa | 1158
335.99 K, 570 kPa | 1159.8
335.99 K, 10300 kPa | 1217.5
335.99 K, 20370 kPa | 1271.4
336 K, 10270 kPa | 1217.2
336 K, 24830 kPa | 1293.8
336 K, 30890 kPa | 1323
336 K, 34840 kPa | 1341.2
336.01 K, 14980 kPa | 1243.1
336.01 K, 20750 kPa | 1273.3
336.02 K, 40670 kPa | 1367.2
336.03 K, 41380 kPa | 1370.3
336.05 K, 41270 kPa | 1369.8
336.06 K, 31080 kPa | 1323.6
348.25 K, 40 kPa | 1108.8
348.27 K, 2120 kPa | 1122.5
348.28 K, 4090 kPa | 1135.2
348.29 K, 2590 kPa | 1125.5
348.3 K, 2110 kPa | 1122.3
348.32 K, 1270 kPa | 1116.8
348.32 K, 8600 kPa | 1162.9
348.32 K, 8900 kPa | 1164.7
348.35 K, 10880 kPa | 1176.3
348.36 K, 15220 kPa | 1201.1
348.36 K, 20050 kPa | 1227.6
348.37 K, 14620 kPa | 1197.7
348.37 K, 60580 kPa | 1413.4
348.39 K, 59820 kPa | 1410.3
348.39 K, 64180 kPa | 1427.6
348.4 K, 64670 kPa | 1429.6
348.41 K, 59890 kPa | 1410.6
348.42 K, 45170 kPa | 1348.7
348.42 K, 49930 kPa | 1369.4
348.42 K, 54750 kPa | 1389.6
348.43 K, 29340 kPa | 1275
348.43 K, 33900 kPa | 1297.2
348.43 K, 39830 kPa | 1324.8
348.45 K, 24930 kPa | 1252.9
355.89 K, 12280 kPa | 1158.2
355.92 K, 15640 kPa | 1177.7
355.94 K, 920 kPa | 1085.7
355.94 K, 20950 kPa | 1207.3
355.95 K, 490 kPa | 1082.6
355.95 K, 2620 kPa | 1097
355.95 K, 25050 kPa | 1229.2
355.95 K, 31130 kPa | 1260.2
355.96 K, 10930 kPa | 1149.9
355.98 K, 270 kPa | 1081
355.98 K, 5370 kPa | 1115.1
355.98 K, 65160 kPa | 1410.3
356 K, 59390 kPa | 1387.1
356.02 K, 41360 kPa | 1308.9
356.02 K, 45060 kPa | 1325.7
356.04 K, 54960 kPa | 1368.5
356.05 K, 34600 kPa | 1276.9
356.08 K, 50520 kPa | 1349.5
373.53 K, 2520 kPa | 1031.7
373.53 K, 5450 kPa | 1052.5
373.54 K, 2530 kPa | 1031.7
373.55 K, 950 kPa | 1020.1
373.57 K, 44340 kPa | 1271.8
373.58 K, 570 kPa | 1017.1
373.58 K, 49640 kPa | 1296.2
373.59 K, 240 kPa | 1014.6
373.6 K, 10260 kPa | 1084.6
373.6 K, 19750 kPa | 1143.4
373.6 K, 29800 kPa | 1199.1
373.6 K, 29850 kPa | 1199.3
373.6 K, 35000 kPa | 1226.1
373.61 K, 14920 kPa | 1114.2
373.61 K, 59070 kPa | 1337.5
373.62 K, 20290 kPa | 1146.4
373.62 K, 39790 kPa | 1249.8
373.62 K, 40800 kPa | 1254.9
373.62 K, 58970 kPa | 1337.1
373.63 K, 24920 kPa | 1172.7
373.63 K, 54980 kPa | 1319.8
373.64 K, 64880 kPa | 1361.7
398.19 K, 37260 kPa | 1168.3
398.2 K, 220 kPa | 923.76
398.2 K, 29920 kPa | 1127.9
398.2 K, 37270 kPa | 1168.3
398.2 K, 40070 kPa | 1182.9
398.2 K, 54810 kPa | 1254.7
398.2 K, 60130 kPa | 1278.8
398.21 K, 500 kPa | 926.17
398.21 K, 34890 kPa | 1155.4
398.21 K, 44950 kPa | 1207.5
398.21 K, 64730 kPa | 1299
398.22 K, 1040 kPa | 930.76
398.22 K, 20010 kPa | 1068.5
398.22 K, 24890 kPa | 1098.6
398.23 K, 50040 kPa | 1232.3
398.24 K, 5190 kPa | 964.55
398.24 K, 15110 kPa | 1036.5
398.24 K, 31220 kPa | 1135.2
398.25 K, 2490 kPa | 942.77
398.25 K, 10300 kPa | 1002.9
398.25 K, 19720 kPa | 1066.6
398.25 K, 31220 kPa | 1135.2
398.26 K, 12650 kPa | 1019.5
422.57 K, 5690 kPa | 886.27
422.65 K, 2630 kPa | 858.44
422.7 K, 14830 kPa | 959.38
422.72 K, 550 kPa | 838.3
422.72 K, 50170 kPa | 1171.8
422.73 K, 190 kPa | 834.7
422.73 K, 28590 kPa | 1052.1
422.73 K, 54780 kPa | 1194.6
422.74 K, 1230 kPa | 844.88
422.74 K, 9190 kPa | 915.48
422.74 K, 44830 kPa | 1144.4
422.75 K, 780 kPa | 840.37
422.75 K, 10020 kPa | 922.14
422.75 K, 19940 kPa | 995.75
422.75 K, 24810 kPa | 1028.2
422.75 K, 29890 kPa | 1060
422.75 K, 64580 kPa | 1240.2
422.76 K, 59900 kPa | 1218.7
422.77 K, 34850 kPa | 1089.3
422.77 K, 40720 kPa | 1122.3
446.94 K, 5130 kPa | 800.91
446.99 K, 10180 kPa | 848.37
446.99 K, 14830 kPa | 887.97
447 K, 19890 kPa | 927.32
447.01 K, 7300 kPa | 821.88
447.02 K, 1020 kPa | 756.94
447.02 K, 24900 kPa | 963.22
447.03 K, 22500 kPa | 946.32
447.07 K, 300 kPa | 748.43
447.07 K, 580 kPa | 751.73
447.08 K, 49880 kPa | 1113.3
447.08 K, 64750 kPa | 1187.3
447.09 K, 30510 kPa | 1000.7
447.11 K, 54450 kPa | 1137
447.12 K, 40150 kPa | 1059.5
447.13 K, 35270 kPa | 1030.4
447.13 K, 45010 kPa | 1086.9
447.13 K, 59760 kPa | 1163.3

O [water]
Conditions | speed of sound [m/s]
306.13 K, 1030 kPa | 1517.3
306.14 K, 4950 kPa | 1524
306.15 K, 19980 kPa | 1549.5
306.15 K, 59750 kPa | 1616.5
306.16 K, 29980 kPa | 1566.5
306.16 K, 39950 kPa | 1583.3
306.16 K, 49950 kPa | 1600.1
357.97 K, 20280 kPa | 1593.1
357.99 K, 400 kPa | 1553.7
358 K, 30380 kPa | 1612.5
358 K, 40230 kPa | 1630.9
358.01 K, 50080 kPa | 1649
358.03 K, 59980 kPa | 1666.8
420.93 K, 1180 kPa | 1471.5
421.06 K, 20130 kPa | 1520.6
421.12 K, 40030 kPa | 1568.6
421.2 K, 59900 kPa | 1613.1
